Assay results from US20060147548A1, “Therapeutic delivery of carbon monoxide” (priority 2002, published 2006).

Columns and labels:
[1] = target: T1, purified guanylate cyclase (Bos taurus, UniProt P16068); conditions: in vitro; literature reference (8); cited from earlier work
T1 sequence (P16068 1-619): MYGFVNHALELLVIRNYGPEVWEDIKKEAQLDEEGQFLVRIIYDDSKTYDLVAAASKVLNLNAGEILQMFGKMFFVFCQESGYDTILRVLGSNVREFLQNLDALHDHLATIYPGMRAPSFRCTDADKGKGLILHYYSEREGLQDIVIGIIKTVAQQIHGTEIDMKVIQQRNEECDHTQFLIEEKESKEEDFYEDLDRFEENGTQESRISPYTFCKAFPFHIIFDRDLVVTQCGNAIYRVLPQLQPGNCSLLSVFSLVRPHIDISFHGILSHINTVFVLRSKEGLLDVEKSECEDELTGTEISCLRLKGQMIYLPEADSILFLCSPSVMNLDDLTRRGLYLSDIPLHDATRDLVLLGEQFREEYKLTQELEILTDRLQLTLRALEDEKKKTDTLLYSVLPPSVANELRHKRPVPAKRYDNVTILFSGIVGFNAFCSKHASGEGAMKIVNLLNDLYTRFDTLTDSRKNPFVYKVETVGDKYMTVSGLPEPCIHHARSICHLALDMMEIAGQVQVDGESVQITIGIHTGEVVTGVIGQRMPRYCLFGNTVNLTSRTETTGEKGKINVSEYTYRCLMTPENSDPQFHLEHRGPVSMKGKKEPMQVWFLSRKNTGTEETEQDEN
T1 sequence (P19687 1-691 partner): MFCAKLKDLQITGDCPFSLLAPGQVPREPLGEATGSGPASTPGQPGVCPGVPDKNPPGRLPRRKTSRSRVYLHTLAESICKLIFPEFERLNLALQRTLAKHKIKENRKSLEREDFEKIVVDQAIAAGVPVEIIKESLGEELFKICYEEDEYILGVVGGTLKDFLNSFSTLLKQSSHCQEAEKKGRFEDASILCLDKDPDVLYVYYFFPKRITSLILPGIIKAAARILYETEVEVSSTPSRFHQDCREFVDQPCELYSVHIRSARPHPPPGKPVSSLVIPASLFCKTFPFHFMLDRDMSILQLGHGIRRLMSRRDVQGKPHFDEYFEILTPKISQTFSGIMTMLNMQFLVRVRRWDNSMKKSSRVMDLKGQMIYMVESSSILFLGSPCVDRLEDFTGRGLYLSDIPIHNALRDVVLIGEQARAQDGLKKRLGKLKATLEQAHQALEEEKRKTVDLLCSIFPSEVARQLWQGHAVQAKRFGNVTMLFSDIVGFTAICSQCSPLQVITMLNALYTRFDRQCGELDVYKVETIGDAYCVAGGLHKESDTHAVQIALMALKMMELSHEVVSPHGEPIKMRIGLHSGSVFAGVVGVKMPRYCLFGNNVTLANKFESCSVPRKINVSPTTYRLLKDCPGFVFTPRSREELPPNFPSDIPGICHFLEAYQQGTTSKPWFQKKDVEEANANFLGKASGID

[2] = test system: isolated aortic rings pre-contracted with phenylephrine; conditions: stated as known; species not given; cited from earlier work
Myoglobin (Mb) [3] = conditions: stated as known; cited from earlier work
Myoglobin (Mb) [4] = test: Conversion of myoglobin (Mb) to carbon monoxide myoglobin (MbCO), CO release; type: biochemical; conditions: for conversion of Mb to MbCO: Mb 50 μM, absorption spectrum
Source text: This method has been previously developed to monitor and determine the amount of CO released from CO-RMs (7).

[5] = test system: isolated aortic rings pre-contracted with phenylephrine; test: Relaxation of isolated rat aortic rings pre-contracted with phenylephrine; type: cell-based; conditions: for relaxation as percentage of the maximal phenylephrine-mediated contraction: Example 1; for percentage of relaxation: Example 4A, 100 μM CORM-3
Protocol: The method for the preparation of isolated aortic rings has been previously described (5; 7). The thoracic aorta was isolated from Sprague-Dawley rats (350-450 g) and flushed with cold Krebs-Henseleit buffer (4° C., pH 7.4) containing (in mM): 118 NaCl, 4.7 KCl, 1.2 KH2PO4, 1.2 MgSO4.7H2O, 22 NaHCO3, 11 Glucose, 0.03 K^+EDTA, 2.5 CaCl2 and supplemented with 10 AM indomethacin. Each aorta was trimmed of adventitial tissue and ring sections (˜3 mm length) were produced from the mid aortic segment. The rings were then mounted between two stainless steel hooks in 9-ml organ baths containing Krebs-Henseleit buffer which was maintained at 37° C. and continuously gassed with 95% O2-5% CO2. One hook was attached to a Grass FT03 isometric force transducer whilst the other was anchored to a sledge for regulation of the resting tension of the aortic ring. The rings were initially equilibrated for 30 min under a resting tension of 2 g which was previously determined to be optimal. Continuous recording of tension was made on a Grass 7D polygraph (Grass Instruments, Quincy, Mass.) in combination with a Biopac MP100 system using AcqKnowledge™ software (Linton Instruments, Norfolk, UK). Before each protocol was carried out, rings were contracted with a standard dose of KCl (100 mM) in order to provide an internal reference and to control for variability in contractile responsiveness between tissues.
The preparation of isolated aortic rings and recording of tension was as in Example 1. Before each protocol was carried out, rings were contracted with a standard dose of KCl (100 mM) in order-to provide an internal reference and to control for variability in contractile responsiveness between tissues. […] An additional set of experiments was performed in which the vascular endothelium was removed from the aortic tissue prior to CORM-3 addition.

Lewis rats = test: Effect on mean arterial pressure in anaesthetised rats; type: in vivo, rat
Protocol: Lewis rats (280-350 g) were anaesthetised by intramuscular injection of 1 ml/kg Hypnorm. Specially designed femoral artery and venous catheters were then surgically implanted as previously described (5; 6) and blood pressure monitored continuously using a polygraph recorder.

human platelets = conditions: increased cGMP levels by YC-1 in the presence of CO; literature reference (1); cited from earlier work

Molecule: [N]=O [NO, nitric oxide]
- increase of enzymatic activity of purified guanylate cyclase [1]: 130 fold

Molecule: [Fe(SPh)2(2,2′-bipyridine) (CO)2]
- dilatation of pre-contracted aortic rings [2]: capable of promoting dilatation of pre-contracted aortic rings
- release of CO to myoglobin in solution (Myoglobin (Mb) [3]): does not release CO to myoglobin in solution

Molecule: [C-]#[O+] [CO, carbon monoxide]
- conversion of Mb to MbCO (Myoglobin (Mb) [4]): rapid conversion to carbon monoxide myoglobin (MbCO)
- increase of enzymatic activity of purified guanylate cyclase [1]: 4.4 fold

Molecule: OCc1ccc(-c2nn(Cc3ccccc3)c3ccccc23)o1 [YC-1, 3-(5′-hydroxymethyl-2′-furyl)-1-benzyl-indazole, reference compound]
- change in vessel contractility ([5]; Example 4B, pre-treatment with YC-1 alone (1 μM, 30 min)): did not cause any significant change in vessel contractility
- decrease in MAP (Lewis rats; YC-1 1.2 μmoles/kg i.v., after 5 min, before CORM-3): 7.0±1.6 mmHg
- inhibition of platelet aggregation (human platelets): complete inhibition of platelet aggregation

Molecule: NCC(=O)O.[C-]#[O+].[C-]#[O+].[C-]#[O+].[Cl][Ru] [CORM-3, Ru(CO)3Cl(NH2CH2CO2)]
- relaxation as percentage of the maximal phenylephrine-mediated contraction ([5]; CORM-3 25 μM, after first addition, presence of YC-1 (5 μM, 30 min pre-incubation)): 33%
- relaxation as percentage of the maximal phenylephrine-mediated contraction ([5]; CORM-3 25 μM, after second addition, presence of YC-1 (5 μM, 30 min pre-incubation)): 66.6%
- relaxation as percentage of the maximal phenylephrine-mediated contraction ([5]; CORM-3 25 μM, after third addition, presence of YC-1 (5 μM, 30 min pre-incubation)): 80.9%
- relaxation as percentage of the maximal phenylephrine-mediated contraction ([5]; CORM-3 25 AM per addition, after first addition, absence of YC-1): 10.3%
- relaxation as percentage of the maximal phenylephrine-mediated contraction ([5]; CORM-3 25 AM per addition, after second addition, absence of YC-1): 24.1%
- relaxation as percentage of the maximal phenylephrine-mediated contraction ([5]; CORM-3 25 AM per addition, after third addition, absence of YC-1): 38%
- relaxation ([5]; Example 3, 100 μM, within few minutes from addition): approximately 54%
- percentage of relaxation ([5]; first addition, in the presence of ODQ (10 μM, 15 min prior)): 1.0±0.8%
- percentage of relaxation ([5]; first addition, in the presence of glibenclamide (10 μM, 30 min prior)): 13.2±4.1%
- percentage of relaxation ([5]; first cumulative addition, mean±S.E.M., 6 experiments): 37.5±5.3%
- percentage of relaxation ([5]; second cumulative addition, mean±S.E.M., 6 experiments): 48.2±4.4%
- percentage of relaxation ([5]; third cumulative addition, mean±S.E.M., 6 experiments): 53.9±4.3%
- relaxation ([5]; Example 4B, 25 μM CORM-3, after the third addition, pre-treatment with YC-1 (1 μM, 30 min)): 77%
- relaxation ([5]; Example 4B, 25 μM CORM-3 alone, after the third addition): approximately 31%
- effect of YC-1 on CORM-3-mediated relaxation ([5]; Example 4B, 50 μM and 100 μM CORM-3, YC-1 1 μM pre-treatment): potentiation of relaxation
- effect of L-NAME on relaxation at increased CORM-3 concentration ([5]; Example 4C, CORM-3 200 and 400 μM, L-NAME present): reversed
- relaxation ([5]; Example 4C, CORM-3 alone, first addition): approximately 37%
- relaxation ([5]; Example 4C, CORM-3 first addition, presence of L-NAME (100 μM) in the organ bath): 5%
- response of aortic rings without the endothelium (−E) ([5]; Example 4C, endothelium removed, unless CORM-3 increased to 400 μM): did not respond to CORM-3 in the same way as intact vessels
- conversion of Mb to MbCO (Myoglobin (Mb) [4]): formation of MbCO is observed
- loss of CO on incubation (Myoglobin (Mb) [4]; incubating overnight at 37° C. in phosphate buffer at pH=7.4): rapidly lost
- decrease in MAP (Lewis rats; CORM-3 30 μmoles/kg i.v. first injection, YC-1 1.2 μmoles/kg i.v. 5 min before): 37.0±2.4 mmHg
- decrease in MAP (Lewis rats; CORM-3 30 μmoles/kg i.v. second injection, YC-1 1.2 μmoles/kg i.v. 5 min before first injection): 22.0±2.3 mmHg
- decrease in MAP (Lewis rats; CORM-3 alone 30 μmoles/kg i.v., first injection, recorded 20 min after injection): 9.4±2.8 mmHg
- decrease in MAP (Lewis rats; CORM-3 alone 30 μmoles/kg i.v., second bolus 20 min after the first): 13.3±4.9 mmHg
